Assay results published in PubChem BioAssay AID1996.
Values after ≈ are worked out from the molar mass of the structure shown.

Conditions: buffer; pH 7.4; 200.0 µM

Compound	solubility kinetic
COc1ccc(-c2noc(CN(C)C(=O)c3ccco3)n2)cc1	42.7 µg/mL (≈ 136 µM)
CC1=C(C#N)C(c2ccc(O)cc2)C(C#N)=C(C)N1	> 37.7 µg/mL
CN(C)c1ccc(NC(=O)c2cccc([N+](=O)[O-])c2)c2ccccc12	15.1 µg/mL (≈ 45 µM)
Cc1cc(C)nc(N/N=C/c2sccc2C)n1	> 36.9 µg/mL
O=C(Nc1cccc([N+](=O)[O-])c1)C1C2CCCCC21 (centres undefined)	0.5 µg/mL (≈ 1.92 µM)
CCOc1ccc(C(=O)Cn2cnc3ccccc3c2=O)cc1	8.5 µg/mL (≈ 27.6 µM)
O=c1[nH]c(=S)n(C2CC2)c(O)c1C=NCc1cccnc1	> 45.4 µg/mL
C1=NCCc2c1[nH]c1ccccc21.[O-][Cl+3]([O-])([O-])O	> 40.6 µg/mL
Cc1ccccc1-c1nnc(SCC(=O)N2CCCC2)o1	> 45.5 µg/mL
COc1ccccc1NC(=O)Nc1cccnc1	34.6 µg/mL (≈ 142 µM)
CCCCN(C(=O)C1=NN(c2ccccc2)C(=O)CC1)c1c(N)n(CCC)c(=O)[nH]c1=O	> 66.1 µg/mL
O=C1NC2=C(C(=O)CCC2)C(c2ccc([N+](=O)[O-])cc2)N1 (centres undefined)	> 43.1 µg/mL
Cc1ccc(N2CCN(c3ccc([N+](=O)[O-])cn3)CC2)c(C)c1	0.3 µg/mL (≈ 0.96 µM)
Cc1ccccc1NC(=O)CSc1ccncc1	36 µg/mL (≈ 139 µM)
S=c1[nH]ccn1CCc1ccccc1	22.7 µg/mL (≈ 111 µM)
O=S(=O)(CCSc1ccc(C(F)(F)F)cn1)c1ccccc1	4.7 µg/mL (≈ 13.5 µM)
COc1ccccc1C(C)NC(=O)c1ccc(S(=O)(=O)NCc2ccco2)cc1 (centres undefined)	12.6 µg/mL (≈ 30.4 µM)
Cc1cc(C)nc(/N=C(\NC(=O)C(C)(C)C)Nc2ccccc2)n1	1.8 µg/mL (≈ 5.53 µM)
CC(N)Cc1c[nH]c2c1ccc1ccccc12.Cl (centres undefined)	33.9 µg/mL
Cc1cc(OCC(=O)NC2CC2)c2c(C)cc(=O)oc2c1	> 43.1 µg/mL

Compound	solubility kinetic
CN(C)C(=S)Nc1ccc2c(c1)OCCO2	> 35.7 µg/mL
N=c1c2c(ncn1CCCO)Oc1cc(O)ccc1C2c1ccccc1 (centres undefined)	35.3 µg/mL (≈ 101 µM)
O=C(/C=C/Nc1ccc(S(=O)(=O)Nc2ncccn2)cc1)c1ccc2ccccc2c1	2 µg/mL (≈ 4.65 µM)
O=c1ccc(S(=O)(=O)N2CCCC2)c[nH]1	> 34.2 µg/mL
Cc1cc(C(=O)Nc2ccccc2Cl)c2ccccc2n1	36.8 µg/mL (≈ 124 µM)
Cl.O=C(CNCc1ccccc1)NC1C2CC3CC(C2)CC1C3 (centres undefined)	50.2 µg/mL
CCOC(=O)c1[nH]cnc1C(=O)Nc1ccc(C)cc1	4.9 µg/mL (≈ 17.9 µM)
Cc1ccc(-c2sc(-c3cccnc3)nc2CC(=O)O)cc1	> 46.6 µg/mL
Cc1ccc(CNC(=O)CCNC(=O)c2ccc([N+](=O)[O-])cc2)cc1	41.2 µg/mL (≈ 121 µM)
O=C(O)CCNC(=O)/C(=C/c1ccco1)NC(=O)c1ccco1	> 47.7 µg/mL
Cc1cc(C(=O)N2CCOCC2)ccc1[N+](=O)[O-]	> 37.5 µg/mL
Cc1ccc(S(=O)(=O)N2CCOCC2)cc1NC(=O)COC(=O)/C=C/c1ccco1	11.4 µg/mL (≈ 26.2 µM)
COc1ccc(-c2cc3nc4n(c(=O)c3s2)CCCCC4)cc1	< 0.3 µg/mL
COc1cccc(OCCNc2ccc([N+](=O)[O-])cn2)c1	4.7 µg/mL (≈ 16.2 µM)
CCN(C(=O)c1cc(Cl)ccc1Cl)C1CCS(=O)(=O)C1 (centres undefined)	> 50.4 µg/mL
Cn1cccc1/C=C(\C#N)c1ccccc1	15.4 µg/mL (≈ 73.9 µM)
C=CCNc1nc(C(=O)OCC(=O)c2ccccc2)cs1	4.5 µg/mL (≈ 14.9 µM)
CCCCN1C(=O)C(=O)N(CC(=O)c2ccc[nH]2)C1=O	> 41.6 µg/mL
Cc1cc(C)c(C(=O)Nc2cccc(F)c2)c(Cl)n1	> 41.8 µg/mL
O=C(NCc1ccncc1)C(=O)NC1CC1	> 32.9 µg/mL

Compound	solubility kinetic
CN(c1ccccc1)S(=O)(=O)c1cccc(C(=O)NC2CCCC2)c1	47.3 µg/mL (≈ 132 µM)
CCc1ccccc1NC(=O)CC1SCCNC1=O (centres undefined)	> 41.8 µg/mL
O=C(COC(=O)/C=C/c1ccccc1[N+](=O)[O-])NCc1ccco1	18.7 µg/mL (≈ 56.6 µM)
O=S(=O)(Nc1cccnc1Cl)c1ccc(-c2ccccc2)cc1	47.7 µg/mL (≈ 138 µM)
CN=C1S/C(=C\c2ccc(Cl)cc2)C(=O)N1C	1.2 µg/mL (≈ 4.5 µM)
Cc1cccc(NC(=O)CCc2ccccc2)c1	35 µg/mL (≈ 146 µM)
COc1cc2ncnc(NCc3ccc(F)cc3)c2cc1OC	> 47 µg/mL
CC(=O)Nc1nc(C)c(-c2nc3ccc([N+](=O)[O-])cc3[nH]2)s1	1.2 µg/mL (≈ 3.78 µM)
CCCCCC(=O)O/N=C(\C)c1ccn(S(=O)(=O)c2ccccc2)c1	1.3 µg/mL (≈ 3.59 µM)
N#C/C(=C(\O)c1cc(Cl)sc1Cl)c1nc2ccccc2[nH]1	< 0.2 µg/mL
COc1ccc(-c2csc(NC(=O)c3ccccc3F)n2)cc1	0.5 µg/mL (≈ 1.52 µM)
CC(C)NC(=O)NC(=O)COC(=O)C1(C)CC1(Cl)Cl (centres undefined)	> 46.7 µg/mL
O=C(CC1CCCCC1)NCc1ccccc1Cl	2.9 µg/mL (≈ 10.9 µM)
COc1ccc(F)cc1COc1nc(C)nc2ccccc12	28.3 µg/mL (≈ 94.9 µM)
O=C(Nc1ccccc1Cl)c1ccc(-c2ccccn2)s1	0.8 µg/mL (≈ 2.54 µM)
O=C(NCCC(=O)N1CCCC1)c1ccccc1Cl	> 42.1 µg/mL
Cn1c(/C=N/O)nc2ccccc21	> 26.3 µg/mL
CCOC(=O)c1cccc(NC(=O)Nc2ccc3c(c2)C(=O)OC3)c1	< 0.4 µg/mL
N#CC1(NC(=O)CSc2nc3ccccc3s2)CCCCC1	46.4 µg/mL (≈ 140 µM)
